The assay concerns the target T1, hCdh1^WD40 (Homo sapiens, UniProt Q9UM11).
T1 construct: human Cdh1 (aa 165–484; pNH164); made in house; host or cells: Sf9 insect cells (baculovirus)
Put plainly: Fluorescence anisotropy, 10 nM Cy5-labeled peptide, hCdh1^WD40. It is filed as binding. The procedure: Activators were cloned into the pFastBac HT A vector, with an N-terminal 2xStrep-Tag II. For some experiments, we constructed vectors for expression of the WD40 domains of yeast Cdh1 (aa 241–550; pNH144), human Cdh1 (aa 165–484; pNH164), or human Cdc20 (aa 162–484; pNH188). For SMOR, a C-terminal GFP tag was added. Bacmid plasmids are listed in Supplementary Table 3. Plasmids were transformed into DH10Bac cells, and purified Bacmid was used to transfect Sf9 cells to generate P1 baculovirus, which was used to generate P2 virus. SF9 cells were infected with the P2 virus for 48 h. […]
Fluorescent degron peptides carried a C-terminal Cy5 label (CPC Scientific) and are listed in Supplementary Table 4. For anisotropy experiments, 10 nM fluorescent peptide was mixed with various concentrations of purified Cdh1 WD40 in wash buffer B at room temperature for 1 min, which we determined was sufficient for the binding reaction to reach equilibrium. Fluorescence was measured on a K2 Multifrequency Fluorometer at 25 °C. All Cy5-labeled peptides were excited with polarized light at 635 nm and emission was detected using a 700/75 nm bandpass filter (ET series, Chroma). […] Results were the same when peptide binding was measured in the buffer used in SMOR assays (buffer C, below). […]
Background: Polarisation of emitted light reports the rotation of a fluorescent probe.

T1 sequence (Q9UM11 165-484): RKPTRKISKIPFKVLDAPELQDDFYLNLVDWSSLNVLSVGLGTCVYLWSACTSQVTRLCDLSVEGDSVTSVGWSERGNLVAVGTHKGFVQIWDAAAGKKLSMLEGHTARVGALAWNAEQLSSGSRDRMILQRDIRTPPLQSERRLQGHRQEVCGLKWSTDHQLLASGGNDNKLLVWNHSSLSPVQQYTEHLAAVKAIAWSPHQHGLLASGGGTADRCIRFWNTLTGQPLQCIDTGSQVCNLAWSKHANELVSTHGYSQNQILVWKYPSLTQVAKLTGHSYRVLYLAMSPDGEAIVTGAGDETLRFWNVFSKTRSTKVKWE

Take “LIYVDKENGEPGTR-K(Cy5) [hSecurin KEN, Cy5-labeled KEN box peptide of human securin/Pttg1]”: the “binding to human Cdh1 (in words)” value is listed as “significant but low-affinity binding to Cdh1”. For “LPKATRKALGTVNRATEKSVK-K(Cy5) [AurKB D box, Cy5-labeled D box peptide of Aurora B kinase]” the value was “significant but low-affinity binding to Cdh1”.

The record behind these values is PMC8764033, “Single-molecule analysis of specificity and multivalency in binding of short linear substrate motifs to the APC/C” (Nature Communications, 2022).
